Measurements reported in ChEMBL document CHEMBL4373667, “Synthesis and anti-cancer activities of glycosides and glycoconjugates of diterpenoid isosteviol” (Medchemcomm, 2019).

Experiments:
[1] = tested on: M-HeLa; experiment: Induction of apoptosis in human M-HeLa cells assessed as late apoptotic cells at 10 uM after 24 hrs by annexin V-FITC/PIstaining based flow cytometric analysis (reference value: 0.62%); type: functional
[2] = tested on: M-HeLa; experiment: Induction of apoptosis in human M-HeLa cells assessed as viable cells at 25 uM after 24 hrs by annexin V-FITC/PIstaining based flow cytometric analysis (reference value: 93.33%); type: functional; conditions: read-out: Activity
[3] = tested on: M-HeLa; experiment: Induction of apoptosis in human M-HeLa cells assessed as late apoptotic cells at 25 uM after 24 hrs by annexin V-FITC/PIstaining based flow cytometric analysis (reference value: 0.62%); type: functional
[4] = tested on: M-HeLa; experiment: Induction of mitochondrial membrane potential loss in human M-HeLa cells assessed as intact mitochondrial membrane potential at 10 uM after 24 hrs by Jc-10 dye based flow cytometric analysis (reference value: 77.48%); type: functional
[5] = tested on: M-HeLa; experiment: Antiproliferative activity against human M-HeLa cells assessed as reduction in cell viability after 24 hrs by DAPI/propidium iodide staining based assay; type: functional
[6] = tested on: M-HeLa; experiment: Induction of mitochondrial membrane potential loss in human M-HeLa cells assessed as collapsed mitochondrial membrane potential at 25 uM after 24 hrs by Jc-10 dye based flow cytometric analysis (reference value: 22.17%); type: functional
[7] = Hemolytic activity in human Erythrocytes at 10 +/- 0.8 uM relative to control; type: ADME, cell-based, Erythrocyte; conditions: read-out: Activity
[8] = tested on: MCF7; experiment: Antiproliferative activity against human MCF7cells assessed as reduction in cell viability after 24 hrs by DAPI/propidium iodide staining based assay; type: functional; conditions: MCF7, 24 h
[9] = tested on: M-HeLa; experiment: Induction of apoptosis in human M-HeLa cells assessed as necrotic cells at 25 uM after 24 hrs by annexin V-FITC/PIstaining based flow cytometric analysis (reference value: […]); type: functional
[10] = Cytotoxicity against human Chang liver cells assessed as reduction in cell viability after 24 hrs by DAPI/propidium iodide staining based assay
[11] = Hemolytic activity in human Erythrocytes at 100 +/- 7.8 uM relative to control; type: ADME, cell-based, Erythrocyte; conditions: read-out: Activity
[12] = tested on: M-HeLa; experiment: Induction of apoptosis in human M-HeLa cells assessed as necrotic cells at 10 uM after 24 hrs by annexin V-FITC/PIstaining based flow cytometric analysis (reference value: […]); type: functional
[13] = tested on: M-HeLa; experiment: Induction of mitochondrial membrane potential loss in human M-HeLa cells assessed as collapsed mitochondrial membrane potential at 10 uM after 24 hrs by Jc-10 dye based flow cytometric analysis (reference value: 22.17%); type: functional
[14] = tested on: M-HeLa; experiment: Induction of mitochondrial membrane potential loss in human M-HeLa cells assessed as intact mitochondrial membrane potential at 25 uM after 24 hrs by Jc-10 dye based flow cytometric analysis (reference value: 77.48%); type: functional
[15] = tested on: M-HeLa; experiment: Induction of apoptosis in human M-HeLa cells assessed as early apoptotic cells at 25 uM after 24 hrs by annexin V-FITC/PIstaining based flow cytometric analysis (reference value: 1.5%); type: functional
[16] = tested on: M-HeLa; experiment: Induction of apoptosis in human M-HeLa cells assessed as viable cells at 10 uM after 24 hrs by annexin V-FITC/PIstaining based flow cytometric analysis (reference value: 93.33%); type: functional; conditions: read-out: Activity
[17] = Hemolytic activity in human Erythrocytes at 50 +/- 0.8 uM relative to control; type: ADME, cell-based, Erythrocyte; conditions: read-out: Activity
[18] = tested on: M-HeLa; experiment: Induction of apoptosis in human M-HeLa cells assessed as early apoptotic cells at 10 uM after 24 hrs by annexin V-FITC/PIstaining based flow cytometric analysis (reference value: 1.5%); type: functional

| IC50 [5] [µM] | IC50 [8] [µM] | SMILES | IC50 [10] [µM] | also measured |
| --- | --- | --- | --- | --- |
| 15.1 | 29.3 | CC(=O)OC[C@H]1O[C@H](OC(=O)[C@]2(C)CCC[C@@]3(C)[C@@H]4CC[C@@]5(C)C[C@]4(CC[C@@H]32)CC5=O)[C@@H](OC(C)=O)[C@@H](OC(C)=O)[C@@H]1OC(C)=O | > 100 | Activity [1]: 7.25%; viability at 25 µM [2]: 73.7%; Activity [3]: 12.97%; Activity [4]: 28.67%; Activity [6]: 92.26%; hemolysis at 10 uM [7]: 0%; Activity [9]: 0.28%; hemolysis at 100 uM [11]: 0%; Activity [12]: 3.98%; Activity [13]: 70.85%; Activity [14]: 7.74%; Activity [15]: 13.12%; viability at 10 µM [16]: 85.8%; hemolysis at 50 uM [17]: 0%; Activity [18]: 3.02% |
| 18 | 36 | CC(=O)N[C@H]1[C@H](OC(=O)[C@]2(C)CCC[C@@]3(C)[C@@H]4CC[C@@]5(C)C[C@]4(CC[C@@H]32)CC5=O)O[C@H](COC(C)=O)[C@@H](OC(C)=O)[C@@H]1OC(C)=O | 86 |  |
| 10 | 32.1 | CC(=O)OC[C@H]1O[C@@H](OC(=O)CCCCCOC(=O)[C@]2(C)CCC[C@@]3(C)[C@@H]4CC[C@@]5(C)C[C@]4(CC[C@@H]32)CC5=O)[C@H](OC(C)=O)[C@@H](OC(C)=O)[C@H]1OC(C)=O | > 100 | Activity [1]: 7.61%; viability at 25 µM [2]: 37.3%; Activity [3]: 13.98%; Activity [4]: 55.78%; Activity [6]: 88.38%; hemolysis at 10 uM [7]: 0%; Activity [9]: 8.9%; hemolysis at 100 uM [11]: 0%; Activity [12]: 5.49%; Activity [13]: 44.17%; Activity [14]: 11.53%; Activity [15]: 39.77%; viability at 10 µM [16]: 52.1%; hemolysis at 50 uM [17]: 0%; Activity [18]: 34.78% |
|  |  | CC/C(=C(\c1ccccc1)c1ccc(OCCN(C)C)cc1)c1ccccc1 [TAMOXIFEN] | 46 |  |
| > 100 | > 100 | CC(=O)OC[C@H]1O[C@@H](OC(=O)[C@]2(C)CCC[C@@]3(C)[C@@H]4CC[C@@]5(C)C[C@]4(CC[C@@H]32)CC5=O)[C@H](OC(C)=O)[C@@H](OC(C)=O)[C@H]1OC(C)=O | > 100 |  |
| > 100 | > 100 | C[C@@]12CC[C@@H]3[C@@](CC[C@H]4[C@@]3(C)CCC[C@@]4(C)C(=O)O[C@@H]3O[C@H](C(=O)NN)[C@@H](O)[C@H](O)[C@H]3O)(C/C1=N\N)C2 | > 100 |  |
| > 100 | > 100 | C[C@@]12CC[C@@H]3[C@@](CC[C@H]4[C@@]3(C)CCC[C@@]4(C)C(=O)O[C@H]3O[C@H](CO)[C@@H](O)[C@H](O)[C@@H]3O)(CC1=O)C2 | > 100 |  |
| 27 | 33.2 | CC(=O)OC[C@H]1O[C@@H](OC(=O)CCCCCCCCCOC(=O)[C@]2(C)CCC[C@@]3(C)[C@@H]4CC[C@@]5(C)C[C@]4(CC[C@@H]32)CC5=O)[C@H](OC(C)=O)[C@@H](OC(C)=O)[C@H]1OC(C)=O | > 100 |  |
| 52 | 29 | C[C@@]12CC[C@@H]3[C@@](CC[C@H]4[C@@]3(C)CCC[C@@]4(C)C(=O)O[C@@H]3O[C@H](CO)[C@H](O)[C@H](O)[C@H]3O)(CC1=O)C2 | 58 |  |
| 18 | 31 | CC(=O)OC[C@H]1O[C@H](OC(=O)CCCCCCCCCOC(=O)[C@]2(C)CCC[C@@]3(C)[C@@H]4CC[C@@]5(C)C[C@]4(CC[C@@H]32)CC5=O)[C@@H](OC(C)=O)[C@@H](OC(C)=O)[C@@H]1OC(C)=O | > 100 |  |
| > 100 | > 100 | CC(=O)OC[C@H]1O[C@@H](OC(=O)[C@]2(C)CCC[C@@]3(C)[C@@H]4CC[C@@]5(C)C[C@]4(CC[C@@H]32)CC5=O)[C@H](OC(C)=O)[C@@H](OC(C)=O)[C@@H]1OC(C)=O | > 100 |  |
| 32 | > 100 | C[C@@]12CC[C@@H]3[C@@](CC[C@H]4[C@@]3(C)CCC[C@@]4(C)C(=O)O[C@@H]3O[C@H](CO)[C@@H](O)[C@H](O)[C@H]3O)(CC1=O)C2 | > 100 |  |
| > 100 | > 100 | CC(=O)N[C@H]1[C@H](OC(=O)[C@]2(C)CCC[C@@]3(C)[C@@H]4CC[C@@]5(C)C[C@]4(CC[C@@H]32)CC5=O)O[C@H](CO)[C@@H](O)[C@@H]1O | > 100 |  |
| 46 | > 100 | CC(=O)N[C@H]1[C@H](OC(=O)CCCCCOC(=O)[C@]2(C)CCC[C@@]3(C)[C@@H]4CC[C@@]5(C)C[C@]4(CC[C@@H]32)CC5=O)O[C@H](COC(C)=O)[C@@H](OC(C)=O)[C@@H]1OC(C)=O | 51.2 |  |
| 26 | 65 | COC(=O)[C@H]1O[C@@H](OC(=O)[C@]2(C)CCC[C@@]3(C)[C@@H]4CC[C@@]5(C)C[C@]4(CC[C@@H]32)CC5=O)[C@H](OC(C)=O)[C@@H](OC(C)=O)[C@@H]1OC(C)=O | > 100 |  |
| > 100 | 64.9 | CC(=O)N[C@H]1[C@H](OC(=O)CCCCCCCCCOC(=O)[C@]2(C)CCC[C@@]3(C)[C@@H]4CC[C@@]5(C)C[C@]4(CC[C@@H]32)CC5=O)O[C@H](COC(C)=O)[C@@H](OC(C)=O)[C@@H]1OC(C)=O | > 100 |  |
| 11 | 63.2 | CC(=O)OC[C@H]1O[C@H](OC(=O)CCCCCOC(=O)[C@]2(C)CCC[C@@]3(C)[C@@H]4CC[C@@]5(C)C[C@]4(CC[C@@H]32)CC5=O)[C@@H](OC(C)=O)[C@@H](OC(C)=O)[C@@H]1OC(C)=O | > 100 | Activity [1]: 5.59%; viability at 25 µM [2]: 84.3%; Activity [3]: 5.02%; Activity [4]: 8.98%; Activity [6]: 89.29%; hemolysis at 10 uM [7]: 0%; Activity [9]: 0.05%; hemolysis at 100 uM [11]: 5.5%; Activity [12]: 0.22%; Activity [13]: 90.91%; Activity [14]: 10.64%; Activity [15]: 10.59%; viability at 10 µM [16]: 86.6%; hemolysis at 50 uM [17]: 1.7%; Activity [18]: 7.57% |
